Assay [1] has as its target T1, Recombinant human cathepsin L (Homo sapiens, UniProt P07711).
T1 construct: made in house
Kind of assay: Recombinant cathepsin inhibition, gel-based competition with GB123 probe. In kind it is biochemical. Particulars: Table S2; three independent competition gel-based experiments; read-out: CTSL (IC50). The procedure: (§1) In-gel fluorescence analysis was used to detect the residual activity of the cathepsins by applying pan-cathepsin probe GB123 to detect the stable enzyme–probe complex. This approach is used for testing inhibition and selectivity.[37],[41]
(§2) Recombinant human cathepsin L (0.5 μM), cathepsin B (0.5 μM), cathepsin K (0.5 μM), and cathepsin S (0.5 μM) were pretreated with different concentrations of inhibitors (GD compounds, odanacatib) for 1 h in reaction buffer (50 mM acetate, 2 mM dithiothreitol (DTT), and 5 mM MgCl2, pH 5.5) at 37 °C. GB123 (1 μM) was added and incubated with samples for 60 min at 37 °C.[37],[41] The reaction was stopped by the addition of sample buffer 4× (40% glycerol, 0.2 M Tris/HCl pH 6.8, 20% β-mercaptoethanol, 12% SDS, and 0.4 mg/mL bromophenol blue). Samples were then boiled, separated on a 12.5% SDS gel, and scanned for fluorescence by a Typhoon scanner FLA 9500 at excitation and emission wavelengths of 635 and 670 nm for GB123.
(§3) graphs were generated in GraphPad Prism software.

Assay [2] concerns the target T2, Recombinant human cathepsin B (Homo sapiens, UniProt P07858).
T2 construct: made in house
Described as above. Format: biochemical. Particulars: Table S2; three independent competition gel-based experiments; read-out: CTSB (IC50). The protocol: as §1, §2, §3

The target of assay [3] is T3, Recombinant human cathepsin K (Homo sapiens, UniProt P43235).
T3 construct: made in house
T3 sequence (P43235 115-329): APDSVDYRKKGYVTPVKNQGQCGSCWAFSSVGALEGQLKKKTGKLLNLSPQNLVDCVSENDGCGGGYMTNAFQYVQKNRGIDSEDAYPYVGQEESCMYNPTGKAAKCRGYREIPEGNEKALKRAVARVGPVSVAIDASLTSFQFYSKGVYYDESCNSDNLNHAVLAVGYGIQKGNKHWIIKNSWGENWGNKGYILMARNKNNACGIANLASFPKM
Described as above. Format: biochemical. The conditions noted are these: for concentration at which significant CTSK inhibition starts: Figure S5, recombinant CTSK. The protocol:
as §1, §2, §3

For assay [4], the target named is T4, Recombinant human cathepsin S (Homo sapiens, UniProt P25774).
T4 construct: made in house
Described as above. Format: biochemical. Particulars: Figure 2, read-out: IC50 [μM] CTSS. The procedure: as §1, §2

In assay [5] the target is T5, endogenous cathepsin K in the nucleus of human osteoclast (Homo sapiens, UniProt P43235).
T5 construct: endogenous in cells; host or cells: primary human osteoclasts differentiated from blood monocytes with M-CSF and RANKL
T5 sequence (P43235 115-329): T3 sequence (P43235 115-329)
Description: Fluorescence microscopy of nuclear CTSK inhibition (GD32 probe). In kind it is cell-based. The conditions noted are these: 3 μM, 2 h, then GD32 8 h. From the text: We have generated inhibitors that block nuclear CTSK activity for the first time. […] CTSK activity labeled by a specific fluorescence ABP, GD32, was detected in the nucleus and nucleoli of osteoclasts, as reported by Dey et al.[19] The CTSK nuclear signal was completely eliminated in the presence of the inhibitors (Figure 9). These inhibitors can facilitate studying CTSK nuclear activity.
Figure 9 Detection of inhibition of endogenous cathepsin K in the nucleus of human osteoclast by fluorescence microscopy. (a) Osteoclast cells were treated with GD20 or GD38 inhibitors [3 μM] or DMSO vehicle in culture medium for 2 h, followed by incubation with GD32 for 8 h, as shown in Figure 8a. Cells were then fixed and stained with DAPI (nucleus), and Z stack images were captured by confocal microscopy. The white arrows indicate the nucleus. […] Red fluorescence is CTSK activity labeled by the ABP (GD32) and blue fluorescence (DAPI). (b) Microscopy image analysis software Imaris 10.0.1 was used to produce a three-dimensional (3D) surface rendering image of a cell nucleus (transparent blue) and CTSK inside it (opaque red) on top of the original image (blue, DAPI; red, GD32). The thresholds for the surfaces were chosen to emphasize CTSK inside the nucleus. One nucleus for each treatment was chosen from pictures in (a). […]

[6] abbreviates: Figure 4b IC50 curves, recombinant CTSK 0.5 μM, read-out: IC50 for inhibiting CTSK activity.

Where two headings read alike, the source gives them in different places.

T1 sequence (P07711 114-333): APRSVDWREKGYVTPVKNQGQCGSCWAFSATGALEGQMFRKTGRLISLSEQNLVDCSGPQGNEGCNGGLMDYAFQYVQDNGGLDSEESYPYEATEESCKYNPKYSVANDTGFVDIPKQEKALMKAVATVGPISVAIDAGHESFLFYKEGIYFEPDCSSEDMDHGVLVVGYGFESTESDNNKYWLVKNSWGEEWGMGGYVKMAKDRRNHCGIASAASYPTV
T4 sequence (P25774 115-331): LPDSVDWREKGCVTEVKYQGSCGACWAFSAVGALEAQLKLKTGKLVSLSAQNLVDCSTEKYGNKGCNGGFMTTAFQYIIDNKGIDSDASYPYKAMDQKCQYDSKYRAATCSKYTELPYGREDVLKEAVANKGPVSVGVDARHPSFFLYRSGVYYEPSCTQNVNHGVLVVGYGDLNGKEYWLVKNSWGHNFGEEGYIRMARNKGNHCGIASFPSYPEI

By IC50 is commonly meant the concentration at which inhibition is half-maximal. Turning to `CC(C)C[C@H](N[C@@H](c1ccc(-c2ccc(S(C)(=O)=O)cc2)cc1)C(F)(F)F)C(=O)NCC(=O)COC(=O)[C@@H]1CCCN1C(=O)[C@H](CC(C)C)NC(=O)OCC1c2ccccc2-c2ccccc21` [GD20], the half-inhibitory concentration (IC50) is above 10 µM in assay [1], above 10 µM in assay [2], 460 ± 77 nM in assay [3] (setting [6]) and 13 ± 2.8 µM in assay [4]. Moreover, the “concentration at which significant CTSK inhibition starts” value in assay [3] was determined as 0.25 µM. Also, the “nuclear CTSK activity labeled by GD32” value in assay [5] is reported as “block CTSK activity in the nucleolus”.
Consider `CC(C)C[C@H](N[C@@H](c1ccc(-c2ccc(S(C)(=O)=O)cc2)cc1)C(F)(F)F)C(=O)NCC(=O)COC(=O)[C@@H]1CCCN1C(=O)[C@H](CCC(N)=O)NC(=O)OCC1c2ccccc2-c2ccccc21` [GD38], for which the IC50 in assay [1] was above 10 µM; in assay [2], above 10 µM; in assay [3] (setting [6]) it was 210 ± 27 nM; in assay [3] (Table S2, three independent competition gel-based experiments, read-out: CTSK (IC50)), 200 ± 20 nM; in assay [4] it was 8.3 ± 2.3 µM. The “concentration at which significant CTSK inhibition starts” value in assay [3] was 0.062 µM. Also, the “nuclear CTSK activity labeled by GD32” value in assay [5] was “block CTSK activity in the nucleolus”.
For the molecule `CC(C)(F)C[C@H](N[C@@H](c1ccc(-c2ccc(S(C)(=O)=O)cc2)cc1)C(F)(F)F)C(=O)NC1(C#N)CC1` [ODN, odanacatib, reference compound], the IC50 in assay [1] was above 10 µM; in assay [2] it was above 10 µM; in assay [3] (Table S2, value in nM, read-out: CTSK (IC50)), 350 ± 0.05 nM.
